Experiment [1] deals with Clostridium perfringens. The experiment is described as follows: Antibacterial activity against Clostridium perfringens CECT376 assessed as bacterial growth inhibition incubated for 18 hrs by Mueller-Hinton broth based doubling dilution method. Format: functional.
Experiment [2] has as its system Lactococcus lactis. The experiment is described as follows: Antibacterial activity against Lactococcus lactis MG1363 assessed as inhibition of bacterial growth at 1 mg/ml incubated for 16 hrs by agar well diffusion assay relative to control. It counts as functional. The arrangement: scale not given: the % may be the effect or the level left. A general note: Agar diffusion results depend on both activity and mobility in agar.

For experiment [3], the system named is Staphylococcus aureus. Nature of the experiment: Antibacterial activity against Staphylococcus aureus LMG15975 assessed as inhibition of bacterial growth at 1 mg/ml incubated for 16 hrs by agar well diffusion assay relative to control. It counts as functional. The arrangement: scale not given: the % may be the effect or the level left.
Experiment [4] has as its system Bacillus cereus. Nature of the experiment: Antibacterial activity against Bacillus cereus ATCC14579 assessed as inhibition of bacterial growth at 1 mg/ml incubated for 16 hrs by agar well diffusion assay relative to control. The arrangement: scale not given: the % may be the effect or the level left. Format: functional.
Experiment [5] concerns Enterococcus faecium. The experiment is described as follows: Antibacterial activity against vancomycin-resistant Enterococcus faecium LMG16003 assessed as bacterial growth inhibition incubated for 18 hrs by Mueller-Hinton broth based doubling dilution method. Format: functional.
The test system of experiment [6] is Clostridium botulinum. The experiment is described as follows: Antibacterial activity against Clostridium botulinum CECT551 assessed as bacterial growth inhibition incubated for 18 hrs by Mueller-Hinton broth based doubling dilution method. Format: functional.
The subject of experiment [7] is Lactococcus lactis. The experiment is described as follows: Antibacterial activity against Lactococcus lactis MG1363 at 1 mg/ml incubated at pH 4 for 4 hrs. Format: functional, organism-based.
Experiment [8] deals with Enterococcus faecalis. The experiment is described as follows: Antibacterial activity against vancomycin-resistant Enterococcus faecalis LMG16216 assessed as bacterial growth inhibition incubated for 18 hrs by Mueller-Hinton broth based doubling dilution method. It counts as functional.
For experiment [9], the system named is Lactococcus lactis. Nature of the experiment: Antibacterial activity against Lactococcus lactis MG1363 at 1 mg/ml incubated under 55 degreeC for 4 hrs. It counts as functional, organism-based.
The subject of experiment [10] is Listeria monocytogenes. The experiment is described as follows: Antibacterial activity against Listeria monocytogenes LMG10470 assessed as bacterial growth inhibition incubated for 18 hrs by Mueller-Hinton broth based doubling dilution method. It counts as functional.
Experiment [11] relates to Lactococcus lactis. Nature of the experiment: Antibacterial activity against Lactococcus lactis MG1363 at 1 mg/ml incubated at pH 2 for 4 hrs. Format: functional, organism-based.
Experiment [12] relates to Lactococcus lactis. The experiment is described as follows: Antibacterial activity against Lactococcus lactis MG1363 assessed as bacterial death at 10 times of MIC by time killing assay. Format: functional, organism-based.
In experiment [13] the test system is Lactococcus lactis. Nature of the experiment: Binding affinity to Lactococcus lactis MG1363 lipid II at 8 ug by Spot-on-lawn assay. The following applies: dose 8.0 µg.
The subject of experiment [14] is Bacillus cereus. The experiment is described as follows: Antibacterial activity against Bacillus cereus ATCC14579 assessed as bacterial growth inhibition incubated for 18 hrs by Mueller-Hinton broth based doubling dilution method. It counts as functional.
In experiment [15] the test system is Clostridium tetani. Nature of the experiment: Antibacterial activity against Clostridium tetani CECT4629 assessed as bacterial growth inhibition incubated for 18 hrs by Mueller-Hinton broth based doubling dilution method. Format: functional.
Experiment [16] relates to Lactococcus lactis. The experiment is described as follows: Antibacterial activity against Lactococcus lactis MG1363 assessed as bacterial growth inhibition incubated for 18 hrs by Mueller-Hinton broth based doubling dilution method. Format: functional.
Experiment [17] relates to Cell membrane. The experiment is described as follows: Induction of membrane permeabilization in Lactococcus lactis MG1363 assessed as pore forming ability by measuring increase in red fluorescence at 2 times MIC measured after 15 mins by SYTO-9 Green dye/red PI staining based fluorescence microscopy. Format: subcellular.
Experiment [18] concerns Lactococcus lactis. The experiment is described as follows: Antibacterial activity against Lactococcus lactis MG1363 at 1 mg/ml incubated under 95 degreeC for 4 hrs. It counts as functional, organism-based.
The test system of experiment [19] is Lactococcus lactis. Nature of the experiment: Antibacterial activity against Lactococcus lactis MG1363 at 1 mg/ml incubated under 22 degreeC for 4 hrs. It counts as functional, organism-based.
The subject of experiment [20] is Lactococcus lactis. Nature of the experiment: Antibacterial activity against Lactococcus lactis MG1363 at 1 mg/ml incubated at pH 7 for 4 hrs. It counts as functional, organism-based.
Experiment [21] concerns Lactococcus lactis. Nature of the experiment: Antibacterial activity against Lactococcus lactis MG1363 at 1 mg/ml incubated at pH 10 for 4 hrs. Format: functional, organism-based.
The test system of experiment [22] is Staphylococcus aureus. Nature of the experiment: Antibacterial activity against methicillin-resistant Staphylococcus aureus LMG15975 assessed as bacterial growth inhibition incubated for 18 hrs by Mueller-Hinton broth based doubling dilution method. It counts as functional.
Experiment [23] has as its system Lactococcus lactis. Nature of the experiment: Antibacterial activity against Lactococcus lactis MG1363 at 1 mg/ml incubated for 2 hrs in presence of trypsin by agar plate method. It counts as functional, organism-based.
In experiment [24] the test system is Staphylococcus aureus. The experiment is described as follows: Antibacterial activity against Staphylococcus aureus LMG10147 assessed as bacterial growth inhibition incubated for 18 hrs by Mueller-Hinton broth based doubling dilution method. It counts as functional.

Values after ≈ are worked out from the molar mass of the structure shown. Active and inactive are the calls of the source. The calls are words filed in the database; no cut-off is given here. *1 amine or outer side, *2 acyl side, *3 side chain or, on linkers, in order; H or OH if unused. Where a SMILES comes first, the peptide text is derived from it. Bridges are numbered along the chain shown (N, C = ends). [ ]: non-standard residue; d: D form. X1 = O=C([C@@H](N[*:1])[C@H](O)C[*:3])[*:2]; Abu(4-yl) = O=C([C@H](CC[*:3])N[*:1])[*:2]

As usually defined, the MIC is the lowest concentration found to suppress growth. As for `CC[C@H](C)[C@H](NC(=O)[C@@H](NC(=O)[C@H](CCCCN)NC(=O)[C@H](CC(C)C)NC(=O)[C@@H](NC(=O)CNC(=O)[C@H](CC(N)=O)NC(=O)CN)C(C)C)[C@@H](C)O)C(=O)N[C@H]1CCSC[C@@H]2NC(=O)[C@@H](NC(=O)[C@H](Cc3ccccc3)NC(=O)[C@H](CC(C)C)NC(=O)[C@H](Cc3ccccc3)NC(=O)[C@H](CCC(N)=O)NC(=O)[C@H](Cc3c[nH]c4ccccc34)NC(=O)[C@H]([C@@H](C)O)NC(=O)[C@H](CC(N)=O)NC(=O)[C@H](CCSC)NC(=O)[C@H](CC(N)=O)NC(=O)[C@H](CS)NC(=O)[C@H](CCC(=O)O)NC(=O)[C@H](Cc3c[nH]cn3)NC1=O)[C@H](O)CSC[C@@H](C(=O)O)NC2=O` (H-GNGVLKTI[Abu(4-yl)]HECNMNTWQFLF[X1]CC-OH; thioether 9-23, 22-24), the MIC in experiment [1] was 75 µg/mL (≈ 27.4 µM).

Turning to `C=C1NC(=O)[C@H](C(C)C)NC(=O)[C@@H]2CSC[C@@H](C(=O)N[C@@H](CCCCN)C(=O)O)NC(=O)[C@H](CSC[C@@H]3NC(=O)[C@H](Cc4ccccc4)NC(=O)[C@@H](NC(=O)[C@H](CC(N)=O)NC(=O)[C@@H](NC(=O)[C@@H](NC(=O)CNC(=O)CNC(=O)CN)C(C)C)[C@@H](C)CC)CSC[C@H](NC(=O)[C@H](CCC(=O)O)NC(=O)[C@H](Cc4c[nH]cn4)NC3=O)C(=O)N[C@@H](Cc3ccc(O)cc3)C(=O)N[C@@H](Cc3ccc(O)cc3)C(=O)N[C@@H](CC(N)=O)C(=O)N2)NC(=O)CNC(=O)CNC(=O)[C@H](Cc2c[nH]c3ccccc23)NC(=O)[C@H](CO)NC(=O)[C@H](C)NC(=O)[C@@H]2CCCN2C1=O`, the Activity in [2], in experiment [3] and in [4] was 100% each time.

Regarding `C=C1NC(=O)[C@H](C(C)C)NC(=O)[C@@H]2CSC[C@@H](C(=O)N[C@@H](CCCCN)C(=O)O)NC(=O)[C@H](CSC[C@@H]3NC(=O)[C@H](Cc4ccccc4)NC(=O)[C@@H](NC(=O)[C@@H](NC(=O)[C@@H](NC(=O)[C@@H](NC(=O)CNC(=O)CNC(=O)CN)C(C)C)[C@@H](C)CC)[C@@H](C)O)CSC[C@H](NC(=O)[C@H](CCC(=O)O)NC(=O)[C@H](Cc4c[nH]cn4)NC3=O)C(=O)N[C@@H](Cc3ccc(O)cc3)C(=O)N[C@@H](Cc3ccc(O)cc3)C(=O)N[C@@H](CC(N)=O)C(=O)N2)NC(=O)CNC(=O)CNC(=O)[C@H](Cc2c[nH]c3ccccc23)NC(=O)[C@H](CO)NC(=O)[C@H](C)NC(=O)[C@@H]2CCCN2C1=O`, the MIC was 64 µg/mL (≈ 23.5 µM) in [5]; 1 µg/mL (≈ 0.367 µM) in experiment [1]; 32 µg/mL (≈ 11.7 µM) in experiment [6]; 64 µg/mL (≈ 23.5 µM) in experiment [8]; more than 64 µg/mL in [10]; 8 µg/mL (≈ 2.94 µM) in [14]. The MIC in experiment [15] is 4 µg/mL (≈ 1.47 µM); in experiment [16], 4 µg/mL (≈ 1.47 µM); in experiment [22], 4 µg/mL (≈ 1.47 µM); in [24] it was 16 µg/mL (≈ 5.87 µM). The outcome in experiment [7], in [11], in [13], in experiment [20] and in [21] was Active. In addition, the outcome in [9] and in experiment [19] was inactive. The Activity entry in [12] is “Not active; Slower Rate Of Killing Observed”; in experiment [2] it was 100%; in experiment [17], “Not active; Only Green Fluorescence Observed”; in [3] it was 100%; in [18] it was “Not active; Less Than 30% Reduction In Activity Observed Relative To Control”; in experiment [23], “Active; More Resistant Compared To Nisin”. Besides, the Activity in [4] was 100%.

`C=C1NC(=O)[C@H](C(C)C)NC(=O)[C@@H]2CSC[C@@H](C(=O)N[C@@H](CCCCN)C(=O)O)NC(=O)[C@H](CSC[C@H]3NC(=O)[C@H](Cc4ccccc4)NC(=O)[C@@H](NC(=O)[C@@H](NC(=O)[C@@H](NC(=O)[C@@H](NC(=O)CNC(=O)CNC(=O)CN)C(C)C)[C@@H](C)CC)[C@@H](C)O)CSC[C@@H](NC(=O)[C@H](CCC(=O)O)NC(=O)[C@H](Cc4c[nH]cn4)NC3=O)C(=O)N[C@@H](Cc3ccc(O)cc3)C(=O)N[C@@H](Cc3ccc(O)cc3)C(=O)N[C@@H](CC(N)=O)C(=O)N2)NC(=O)CNC(=O)[C@H](CO)NC(=O)[C@H](C)NC(=O)[C@@H]2CCCN2C1=O`: the result in experiment [2], in [3] and in experiment [4] was inactive.

Source of the values: ChEMBL document CHEMBL6153065, “Heterologous Expression and Characterization of Estercin A, a Class II Lanthipeptide Derived from Clostridium estertheticum CF016, with Antimicrobial Activity against Clinically Relevant Pathogens” (2025).
